Results taken from ChEMBL document CHEMBL3046443, “Lipid lowering and antioxidant activity of flavones in triton treated hyperlipidemic rats” (2011).

Experiments:
Format in all cases: functional
[1] = Antioxidant activity assessed as hydroxyl radical scavenging activity at 200 ug/ml
Rattus norvegicus [2] = experiment: Antihyperlipidemic activity in Rattus norvegicus Charles Foster (rat) trition WR-1339-induced hyperlipidemic model assessed as reduction of total triglyceride level in plasma at 200 mg/kg, po; parameters: scale not given: the % may be the effect or the level left
Rattus norvegicus [3] = experiment: Antihyperlipidemic activity in Rattus norvegicus Charles Foster (rat) trition WR-1339-induced hyperlipidemic model assessed as reduction of total phospholipid level in plasma at 200 mg/kg, po; parameters: scale not given: the % may be the effect or the level left
Rattus norvegicus [4] = experiment: Antihyperlipidemic activity in Rattus norvegicus Charles Foster (rat) trition WR-1339-induced hyperlipidemic model assessed as reduction of total cholesterol level in plasma at 200 mg/kg, po; parameters: scale not given: the % may be the effect or the level left
[5] = Antioxidant activity assessed as hydroxyl radical scavenging activity at 100 ug/ml
[6] = Antioxidant activity assessed as inhibition of xanthine-xanthine oxidase generated superoxide anion radical production at 100 ug/ml after 30 min by NBT reduction assay
[7] = Antioxidant activity assessed as inhibition of xanthine-xanthine oxidase generated superoxide anion radical production at 200 ug/ml after 30 min by NBT reduction assay

| SMILES | Activity [1] | Activity (Rattus norvegicus [2]) | Activity (Rattus norvegicus [3]) | Activity (Rattus norvegicus [4]) | Activity [5] | inhibition [6] | inhibition [7] |
| --- | --- | --- | --- | --- | --- | --- | --- |
| OC[C@@H](O)[C@@H](O)[C@H](O)[C@H](O)CO | -48% | – | – | – | – | – | – |
| C/C=C1\C(=O)C[C@H]2[C@@H]3CCC4=CC(=O)CC[C@]4(C)[C@H]3CC[C@]12C [GUGGULSTERONE] | – | 36% | 35% | 35% | – | – | – |
| O=c1c(O)c(-c2cc(O)c(O)c(O)c2)oc2cc(O)cc(O)c12 [MYRICETIN] | 53% | 24% | 25% | 24% | -36% | 27% | – |
| O.O=C1CC(c2ccc(O)cc2)Oc2cc(O)cc(O)c21 (centres undefined) [NARINGENIN HYDRATE] | 38% | 26% | 27% | 27% | 26% | 19% | 34% |
| C[C@@H]1O[C@@H](OC[C@H]2O[C@@H](Oc3c(-c4ccc(O)c(O)c4)oc4cc(O)cc(O)c4c3=O)[C@H](O)[C@@H](O)[C@@H]2O)[C@H](O)[C@H](O)[C@H]1O [RUTIN] | 32% | 11% | 10% | 8% | 21% | 18% | 35% |
